# Source: patent US20180099931A1 (AbbVie S.à.r.l., priority 2016, published 2018)
# Where two headings read alike, the source gives them in different places.
# Target: T1, F508delCFTR (Homo sapiens, UniProt P13569, DEL508-508)
# T1 construct: expressed in transfected cells; host or cells: CFBE41o- human lung-derived epithelial cells (CFBE4lo-F508delCFTR-HRP), doxycycline-inducible
# Assay: Cell Surface Expression-Horse Radish Peroxidase (CSE-HRP) Assay;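 on Maximum % activity (with co-corrector): co-corrector and positive control are both the same reference corrector at 2 µM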;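 on Maximum % activity (without co-corrector): percent of the 2 µM on-plate positive control corrector response above DMSO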
# Type: cell-based
# Details: for Emax / Maximum % activity (with co-corrector): maximum at any tested concentration, normalized to on-plate positive control; for Emax: read-out: Maximum % activity (without co-corrector)
# [1] = test compound without co-corrector
# [2] = test compound without co-corrector, read-out: EC50 (without co-corrector)
# [3] = with co-corrector (2 μM of 3-[(2R,4R)-4-({[1-(2,2-difluoro-1,3-benzodioxol-5-yl)cyclopropyl]carbonyl}amino)-7-methoxy-3,4-dihydro-2H-chromen-2-yl]benzoic acid)
# [4] = with co-corrector (2 μM of 3-[(2R,4R)-4-({[1-(2,2-difluoro-1,3-benzodioxol-5-yl)cyclopropyl]carbonyl}amino)-7-methoxy-3,4-dihydro-2H-chromen-2-yl]benzoic acid), read-out: EC50 (with co-corrector)
# [5] = CSE-HRP, test compound without co-corrector, read-out: EC50 (without co-corrector)
# [6] = CSE-HRP, with co-corrector (2 μM of 3-[(2R,4R)-4-({[1-(2,2-difluoro-1,3-benzodioxol-5-yl)cyclopropyl]carbonyl}amino)-7-methoxy-3,4-dihydro-2H-chromen-2-yl]benzoic acid), read-out: EC50 (with co-corrector)
# [7] = CSE-HRP, with co-corrector (2 μM)
# T1 sequence (P13569 with tags, fused parts or gaps DEL508-508): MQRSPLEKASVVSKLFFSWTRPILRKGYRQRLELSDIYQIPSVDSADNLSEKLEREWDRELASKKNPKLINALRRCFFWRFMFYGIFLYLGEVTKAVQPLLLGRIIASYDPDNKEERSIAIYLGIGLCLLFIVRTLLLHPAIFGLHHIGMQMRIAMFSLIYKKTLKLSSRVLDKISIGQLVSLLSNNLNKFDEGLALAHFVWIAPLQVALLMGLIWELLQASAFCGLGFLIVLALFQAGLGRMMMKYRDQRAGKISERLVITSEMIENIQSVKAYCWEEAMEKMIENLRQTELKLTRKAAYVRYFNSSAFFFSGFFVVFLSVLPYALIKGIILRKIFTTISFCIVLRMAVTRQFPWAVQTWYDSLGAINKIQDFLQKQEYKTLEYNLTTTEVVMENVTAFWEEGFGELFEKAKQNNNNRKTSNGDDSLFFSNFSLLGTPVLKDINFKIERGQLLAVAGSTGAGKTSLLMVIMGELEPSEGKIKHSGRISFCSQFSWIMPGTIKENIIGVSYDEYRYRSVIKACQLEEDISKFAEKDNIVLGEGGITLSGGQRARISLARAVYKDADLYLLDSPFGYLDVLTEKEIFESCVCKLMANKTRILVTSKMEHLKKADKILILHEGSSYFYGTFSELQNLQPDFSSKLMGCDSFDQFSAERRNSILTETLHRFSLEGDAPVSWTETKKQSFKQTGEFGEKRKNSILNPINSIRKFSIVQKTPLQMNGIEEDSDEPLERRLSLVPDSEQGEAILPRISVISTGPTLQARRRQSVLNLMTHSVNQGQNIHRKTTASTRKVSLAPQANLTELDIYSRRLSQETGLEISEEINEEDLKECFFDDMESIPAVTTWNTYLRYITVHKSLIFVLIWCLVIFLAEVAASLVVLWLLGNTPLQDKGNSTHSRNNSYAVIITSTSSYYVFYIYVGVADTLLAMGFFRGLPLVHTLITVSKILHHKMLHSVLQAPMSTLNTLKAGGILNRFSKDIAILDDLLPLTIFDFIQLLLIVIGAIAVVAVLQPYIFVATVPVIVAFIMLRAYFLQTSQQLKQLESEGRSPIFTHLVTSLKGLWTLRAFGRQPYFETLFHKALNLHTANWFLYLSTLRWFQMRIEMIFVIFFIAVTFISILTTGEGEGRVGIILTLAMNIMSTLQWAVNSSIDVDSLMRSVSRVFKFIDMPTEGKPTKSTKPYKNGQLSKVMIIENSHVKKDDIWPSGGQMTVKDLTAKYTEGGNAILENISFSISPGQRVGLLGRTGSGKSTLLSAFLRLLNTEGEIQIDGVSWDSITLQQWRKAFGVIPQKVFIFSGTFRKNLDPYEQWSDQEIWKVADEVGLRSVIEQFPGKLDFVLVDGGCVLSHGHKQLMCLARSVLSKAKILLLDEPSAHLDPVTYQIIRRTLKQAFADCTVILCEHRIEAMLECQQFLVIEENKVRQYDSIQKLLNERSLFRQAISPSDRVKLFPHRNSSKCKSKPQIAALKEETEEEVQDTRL
Structure (SMILES),Emax [1] [%],EC50 [2] [nM],Maximum % activity (with co-corrector) [3],EC50 [4] [nM],Maximum % activity (with co-corrector) (with co-corrector (2 μM)),Emax (without co-corrector) [%],EC50 [5] [nM],EC50 [6] [nM],Maximum % activity (with co-corrector) [7],"Emax (CSE-HRP, without co-corrector) [%]"
"COc1nc(C(C)(C)C)ccc1CN[C@H]1[C@H](C(C)(C)C)[C@@H](C(=O)O)N(C(=O)[C@@H]2CCCCO2)[C@H]1c1ccccc1 [Example 38, (2S,3S,4S,5S)-3-tert-butyl-4-{[(6-tert-butyl-2-methoxypyridin-3-yl)methyl]amino}-1-[(2S)-oxane-2-carbonyl]-5-phenylpyrrolidine-2-carboxylic acid]",,1000 to 10000,,< 1000,+++ (≥350),> 200,,,,
COc1ccc(C(F)(F)F)cc1CN[C@H]1[C@H](C(C)(C)C)[C@@H](C(=O)O)N(C(=O)[C@@H]2CCC[C@@H](OC)C2)[C@H]1c1ccccc1 [Example I-59],,1000 to 10000,,1000 to 10000,+++ (≥350),> 200,,,,
CC(C)(C)c1ccc(O)c(CN[C@H]2[C@H](C(C)(C)C)[C@@H](C(=O)O)N(C(=O)C3CCCCC3)[C@H]2c2ccccc2)c1 [Example I-80],,> 10000,,> 10000,+ (<150),< 100,,,,
COc1ccc(C2=CCOCC2)cc1CN[C@H]1[C@H](C(C)(C)C)[C@@H](C(=O)O)N(C(=O)C2CCCCC2)[C@H]1c1ccccc1 [Example I-129],,1000 to 10000,,1000 to 10000,+++ (≥350),100 to 200,,,,
COc1cc(C(F)(F)F)ccc1CN[C@H]1[C@H](C(C)(C)C)[C@@H](C(=O)O)N(C(=O)[C@@H]2CCCCO2)[C@H]1c1cccc2c1OCC2 [Example I-300],,,,,,,1000 to 10000,1000 to 10000,+++ (≥350),> 200
CC(C)(C)[C@@H]1[C@@H](Nc2cccc(OC(F)F)n2)[C@@H](c2ccccc2)N(C(=O)C2CCCCC2)[C@H]1C(=O)O (racemic) [Example I-21],,1000 to 10000,,1000 to 10000,+++ (≥350),< 100,,,,
CCn1ccc(=O)c(C(=O)N2[C@H](C(=O)O)[C@@H](C(C)(C)C)[C@H](NCc3cc(C(C)(C)C)ccc3OC)[C@@H]2c2ccccc2)c1 [Example I-101],,> 10000,,> 10000,+ (<150),< 100,,,,
COc1ccc2ccccc2c1CN[C@H]1[C@H](C(C)(C)C)[C@@H](C(=O)O)N(C(=O)C2CCCCC2)[C@H]1c1ccccc1 [Example I-188],,1000 to 10000,,1000 to 10000,++ (≥150 and <350),< 100,,,,
"COc1ncc(C(F)(F)F)cc1CN[C@H]1[C@H](C(C)(C)C)[C@@H](C(=O)O)N(C(=O)[C@@H]2CCCCO2)[C@H]1c1ccccc1 [Example 21, (2S,3S,4S,5S)-3-tert-butyl-4-({[2-methoxy-5-(trifluoromethyl)pyridin-3-yl]methyl}amino)-1-[(2S)-oxane-2-carbonyl]-5-phenylpyrrolidine-2-carboxylic acid]",,1000 to 10000,,1000 to 10000,+++ (≥350),100 to 200,,,,
COc1ccc(C(C)(C)C)cc1CN[C@H]1[C@H](C(C)(C)C)[C@@H](C(=O)O)N(C(=O)OC2CCCC2)[C@H]1c1ccccc1 [Example I-119],,1000 to 10000,,< 1000,+++ (≥350),> 200,,,,

# Results, then the compound that gave them:
Emax [1] [%],EC50 [2] [nM],Maximum % activity (with co-corrector) [3],EC50 [4] [nM],Maximum % activity (with co-corrector) (with co-corrector (2 μM)),Emax (without co-corrector) [%],EC50 [5] [nM],EC50 [6] [nM],Maximum % activity (with co-corrector) [7],"Emax (CSE-HRP, without co-corrector) [%]",Structure (SMILES)
> 200,1000 to 10000,+++ (≥350),< 1000,,,,,,,COc1ncc(C2CCC2)cc1CN[C@H]1[C@H](C(C)(C)C)[C@@H](C(=O)O)N(C(=O)[C@@H]2CCCCO2)[C@H]1c1ccccc1C [II-585]
< 100,1000 to 10000,,1000 to 10000,++ (≥150 and <350),,,,,,COc1ccc(C(C)(C)C)cc1CN[C@H]1[C@H](C(C)(C)C)[C@@](C)(C(=O)O)N(C(=O)[C@H](OC)c2ccccc2)[C@H]1c1ccccc1 [III-215]
< 100,> 10000,++ (≥150 and <350),< 1000,,,,,,,Cc1cc(C(F)(F)F)cc(N[C@@H]2[C@@H](C(C)(C)C)[C@H](C(=O)NS(=O)(=O)C3CC3)N(C(=O)C3CCCCC3)[C@@H]2c2ccccc2)n1 (racemic) [III-52]
,,,,,,1000 to 10000,1000 to 10000,+++ (≥350),< 100,COc1ccc(-c2cccnc2C)cc1CN[C@H]1[C@H](C(C)(C)C)[C@@H](C(=O)O)N(C(=O)C2CCCCC2)[C@H]1c1ccccc1 [II-288]
100 to 200,1000 to 10000,+++ (≥350),< 1000,,,,,,,COc1nc(C(C)(C)C)ccc1CN[C@H]1[C@H](C(C)(C)C)[C@@H](C(=O)O)N(C(=O)OC(C)C)[C@H]1c1ccccc1F [II-519]
,,,,,,1000 to 10000,1000 to 10000,+++ (≥350),100 to 200,COc1cc(Cl)ccc1CN[C@H]1[C@H](C(C)(C)C)[C@@H](C(=O)O)N(C(=O)C2CCCCC2)[C@H]1c1cccnc1OC [II-91]
< 100,> 10000,+ (<150),> 10000,,,,,,,COc1ccncc1CN[C@@H]1[C@@H](C(C)(C)C)[C@H](C(=O)O)N(C(=O)C2CCCCC2)[C@@H]1c1ccccc1 (racemic) [III-16]
> 200,< 1000,,< 1000,+++ (≥350),,,,,,COc1ccc(C23CC4CC(CC(C4)C2)C3)cc1CN[C@H]1[C@H](C(C)(C)C)[C@@H](C(=O)O)N(C(=O)C2CCCCC2)[C@H]1c1cccnc1N(C)C [III-183]
,,,,,,1000 to 10000,< 1000,+++ (≥350),> 200,COc1ncc(C(F)(F)F)cc1CN[C@H]1[C@H](C(C)(C)C)[C@@H](C(=O)O)N(C(=O)[C@H](OC)c2ccccc2)[C@H]1c1ccccc1 [II-83]
> 200,1000 to 10000,+++ (≥350),1000 to 10000,,,,,,,COc1ccc(C(C)(C)C)cc1CN[C@H]1[C@H](C(C)(C)C)[C@@H](C(=O)O)N(C(=O)C2CC(C)(C)C2)[C@H]1c1ccccc1 [II-328]
,,,,,,1000 to 10000,1000 to 10000,+++ (≥350),> 200,COc1ccc(C(F)(F)F)cc1CN[C@H]1[C@H](C(C)(C)C)[C@@H](C(=O)O)N(C(=O)C(OC)C(C)C)[C@H]1c1ccccc1 (some centres unmarked) [II-273]
,,,,,,1000 to 10000,1000 to 10000,++ (≥150 and <350),< 100,CC(C)(C)c1cc(CN[C@H]2[C@H](C(C)(C)C)[C@@H](C(=O)O)N(C(=O)C3CCCCC3)[C@H]2c2ccccc2)cc(C(C)(C)C)c1 [II-133]
100 to 200,1000 to 10000,,< 1000,+++ (≥350),,,,,,COc1ccc(C(C)(C)C)cc1CN[C@H]1[C@H](C(C)(C)C)[C@@H](C(=O)O)N(C(=O)c2cnn(-c3cccc(C)c3)c2C(C)C)[C@H]1c1ccccc1 [III-194]
> 200,1000 to 10000,+++ (≥350),< 1000,,,,,,,COc1ccc(C23CC(C2)C3)cc1CN[C@H]1[C@H](C(C)(C)C)[C@@H](C(=O)O)N(C(=O)[C@H]2CCC[C@H](OC)C2)[C@H]1c1ccccc1 [II-516]
,,,,,,1000 to 10000,1000 to 10000,+++ (≥350),100 to 200,"COc1ccc(C(C)(C)C)cc1CN[C@H]1[C@H](C(C)(C)C)[C@@H](C(=O)O)N(C(=O)C2Cc3ccccc3O2)[C@H]1c1ccccc1 (single isomer, unassigned) [II-272]"
,,,,,,1000 to 10000,1000 to 10000,+++ (≥350),100 to 200,COc1ccc(C(C)(C)C)cc1CN[C@H]1[C@H](C(C)(C)C)[C@@H](C(=O)O)N(C(=O)Cc2cccnc2)[C@H]1c1ccccc1 [II-184]
